# What was measured:
# B16 = assay: The compound was tested for cytotoxicity against B16 melanoma cells; assay type: functional; conditions: Mus musculus, read-out: ED50 (the source's name)
# [1] = Effective dose required to promote microtubule assembly at 10 uM tubulin concentration; assay type: functional
Compound,EC50 (B16) [nM],ED50 [1] [nM]
CC(=O)O[C@H]1C(=O)[C@@]2(C)[C@H]([C@H](OC(=O)c3ccccc3)[C@]3(O)C[C@H](OC(=O)[C@H](O)[C@@H](NC(=O)c4ccccc4)c4ccc(Cl)cc4)C(C)=C1C3(C)C)[C@]1(OC(C)=O)CO[C@@H]1C[C@@H]2O,61,1300
CC(=O)O[C@H]1C(=O)[C@@]2(C)[C@H]([C@H](OC(=O)c3ccccc3)[C@]3(O)C[C@H](OC(=O)[C@H](O)[C@@H](NC(=O)c4ccccc4)c4ccccc4)C(C)=C1C3(C)C)[C@]1(OC(C)=O)CO[C@@H]1C[C@@H]2O [PACLITAXEL],28,700
CC(=O)O[C@H]1C(=O)[C@]2(C)[C@@H](O)CC3OC[C@@]3(OC(C)=O)[C@H]2[C@H](OC(=O)c2ccccc2)[C@]2(O)C[C@H](OC(=O)[C@H](O)[C@@H](NC(=O)c3ccc(Cl)cc3)c3ccccc3)C(C)=C1C2(C)C (stereo partly specified),43,1700

# — ChEMBL document CHEMBL1126405, “Novel Biologically Active Taxol Analogues: Baccatin III 13-(N-(p-chlorobenzoyl)-(2R,3S)-3-phenylisoserinate) and Baccatin III 13-(N-benzoyl-(2R,3S)-3-(p-chlorophenyl)isoserinate)” (1992)
